Measurements as given in patent US11154477B2, “Use of alkanolamine alkylamides as humectants” (Akzo Nobel Chemicals International B.V., priority 2016, dated 2021).

Legend:
[1] = test system: skin (inner forearm of each panelist); assay: Corneometer measurement of skin moisture after a single application of gel formulation; assay type: in vivo; settings: 5 wt % gel, average of eight panelists
Procedure: To prepare a gel formulation, deionized water was added to a 4 oz. tall jar that was set up for mixing using an overhead mixer and a jiffy blade. The water was then mixed at a speed that created a good vortex that nearly reached the bottom of the jar (e.g., about 700 rpm). To this, Carbopol® 940 (cross-linked polyacrylate polymer available from Lubrizol, […], Ohio) was slowly added and mixed for at least 15 minutes until homogeneous. Triethanolamine (TEA) was then added and the mixing speed was adjusted overhead to about 200 rpm and continued mixing for about 10 minutes (e.g., product viscosity increased). To this mixture, 5 wt % of the sample compound in its pure form (or hydroxyethyl urea or glycerol control) was added followed by 0.5 wt % GlydantTM PlusTM (a preservative available from Lonza, Basel, Switzerland) and the remaining, balance water. Mixing was continued at 200 rpm for about 15-20 minutes. The mixture was then removed from the mixer and the final pH was measured. […] Moisture levels were measured using a Corneometer® CM 825 (available from CK Industries) prior to and at various time intervals after the sample application at a temperature of 22° C. and relative humidity of 50%, wherein the corneometer values recorded are the difference between the corneometer reading at a given time and the initial corneometer reading at 0 hours, which is set at zero. […]

[2] = Dynamic Vapor Sorption (DVS) measurement of water absorption by humectants; assay type: physicochemical; settings: for Percentage of water absorbed based on weight of the tested compound: 25° C., equilibrium
Procedure: Dynamic Vapor Sorption (DVS) technique was used to measure the moisture intake of a specific compound at certain humidity level. A DVS Intrinsic instrument manufactured by Surface Measurement Systems UK Ltd. (London, United Kingdom) was used to measure DVS. The following measurement procedure was used to determine the water vapor absorption of a specific compound.
A uniform aqueous solution of a specific, target compound was made at 50% concentration. About 1.2 to 1.6 mg of the prepared aqueous solution was added to DVS instrument at zero tare balance. The temperature was then set at 25° C., and the measurement was performed at various humidity levels. The first measurement was performed at a humidity of 90% to ensure that the sample absorbs the highest level of water in order to minimize the mass transfer barrier during the evaporation process. The typical humidity measurements were then taken at 50%, 40%, 30%, 20%, 10%, and 0% humidity. The dynamics of water absorption was determined by the weight change per minute. If weight change per minute was less than 0.005% of the sample weight, it was deemed that water absorption had reached the equilibrium point. The equilibrium weight at 0% humidity is the sample weight by itself. Thus, the percentage of equilibrium water absorption at various humidity levels was calculated.
Using the above procedure, DVS was used to evaluate water absorption for DGA Acetamide as compared to hydroxyethyl urea and glycerol at different humidity levels.

Structure (SMILES) | humectance performance (corneometer) versus glycerol ([1]; at 24 hours) | corneometer readings versus control (water) formulation ([1]; entire time range tested (24 hours), 22° C., 50% relative humidity) | Percentage of water absorbed based on weight of the tested compound ([2]; 10% rel. humidity) | Percentage of water absorbed based on weight of the tested compound ([2]; 20% rel. humidity) | Percentage of water absorbed based on weight of the tested compound ([2]; 30% rel. humidity) | Percentage of water absorbed based on weight of the tested compound ([2]; 40% rel. humidity) | Percentage of water absorbed based on weight of the tested compound ([2]; 50% rel. humidity) | water absorption capability (comparison in words) ([2]; 50% relative humidity) | water absorption capability (comparison in words) ([2]; relative humidity levels of 10%, 20% 30%, and 40%)
CC(=O)NCCOCCO [DGA acetamide, N-acetyl diglycolamine] | same as glycerol | superior to the control formulation | 2.6% | 5.9% | 9.9% | 15.3% | 26.9% | on par with glycerol | on par with that for hydroxyethyl urea
OCC(O)CO [Glycerol, glycerol] |  |  | 4.6% | 8.6% | 15.9% | 23.3% | 27.7% |  | 
NC(=O)NCCO [Hydroxyethyl urea, hydroxyethyl urea] |  |  | 2.4% | 5.4% | 9.2% | 14.1% | 19.7% |  | 
